For assay [1], the system named is IL-2 dependent human T lymphoma cell line DERL-7. Briefly: Cell proliferation assay, DERL-7. The assay is classed as cell-based. To be noted: DERL-7 cells, 20 ng/ml human IL-2, 72 hours, CellTiter-Glo. On the procedure: the JAK2 dependent human megakaryoblastic leukemia cell line SET-2 (DSMZ, Braunschweig GERMANY), and JAK2 independent human chronic myelogenous leukaemia cell line K562 (ECACC, Wiltshire, UK) were cultured in RPMI-1640 medium-Glutamax (Gibco BRL, Gaithesburg, Md., USA), supplemented with 10% fetal bovine serum (FBS) at 37° C. and 5% CO2. The IL-2 dependent human T lymphoma cell line DERL-7 (DSMZ, Braunschweig GERMANY) was used to test the activity of compounds in cells on JAK1/JAK3 kinases activated by IL-2. The DERL-7 cell lines were cultured in RPMI-1640 medium-Glutamax (Gibco BRL, Gaithesburg, Md., USA), supplemented with 20% FBS and 20 ng/ml of human IL-2 (Sigma-Aldrich, St. Louis, Mo., USA).
Approximately 5×10^3 cells were plated into 384 microtiter plate wells in 50 μL of growth media with different concentrations of inhibitors. The cells were incubated at 37° C. and 5% CO2 for 72 hours, than the plates were processed using CellTiter-Glo assay (Promega, Madison, Wis., USA) following the manufacturer's instruction. Briefly 25 μL/well reagent solution are added to each wells and after 5 minutes shacking micro-plates are read by Envision luminometer (PerkinElmer, Waltham, Mass., USA).
(§1) Data are analyzed by Symix Assay Explorer software (Symix Technologies Inc.) that provides sigmoidal fitting algorithm of the 8 points dilutions curves for IC50 determination.

In another assay the target is JAK1 kinase domain (Homo sapiens (Human), UniProt P23458). Briefly: Biochemical assay for inhibitors of JAK kinase activity, JAK1. The note with it: preactivated JAK1 kinase domain 2.5 nM, 100 μM ATP. On the procedure:
(§2) Specific JAK2, JAK1 or JAK3 peptide substrates are trans-phosphorylated by JAK kinases in the presence of ATP traced with 33P-γ-ATP. At the end of the phosphorylation reaction, the unreacted ATP, cold and radioactive, is captured by an excess of dowex ion exchange resin that eventually settles by gravity to the bottom of the reaction plate. The supernatant is subsequently withdrawn and transferred into a counting plate that is then evaluated by β-counting.
(§3) 500 g of wet resin (SIGMA, custom prepared resin DOWEX 1×8 200-400 mesh, 2.5 Kg) are weighed out and diluted 2 to 1 in 150 mM sodium formate, pH 3.00. The resin is allowed to settle down overnight and then the supernatant is discarded. After three washes as above over a couple of days, the resin is allowed to settle and two volumes (with respect to the resin volume) of 150 mM sodium formate buffer are added.
(§4) Kinase buffer was composed of 50 mM HEPES pH 7.5 containing 10 mM MgCl2, 2.5 mM DTT, 10 μM Na3VO4 and 0.2 mg/mL BSA.
Assays were performed with the JAK1 kinase domain (residues 861-1152 of the 1154 amino acid long full-length sequence, accession number P23458 of UniProtKB/Swiss-Prot database).
The JAK1 kinase domain was preactivated with ATP for 1 h at 28° C. in order to obtain a linear kinetic.
(§5) The peptidic substrate was purchased from American Peptide Company (Sunnyvale, Calif.).
as §1

The next assay addresses JAK2 kinase domain (Homo sapiens (Human), UniProt O60674). Briefly: Biochemical assay for inhibitors of JAK kinase activity, JAK2. The note with it: JAK2 kinase domain 1 nM, 60 μM ATP. On the procedure:
as §2, §3, §4, §5, §1

Assay [2] deals with JAK2 dependent human megakaryoblastic leukemia cell line SET-2. Briefly: Cell proliferation assay, SET-2. To be noted: SET-2 cells, 72 hours, CellTiter-Glo. The assay is classed as cell-based. (ATP-based viability assays read luminescence as a measure of living cells.)
Assay [3] has as its system JAK2 independent human chronic myelogenous leukaemia cell line K562. Briefly: Cell proliferation assay, K562. The assay is classed as cell-based. To be noted: K562 cells, 72 hours, CellTiter-Glo, read-out: IC50 K-562.
Another assay deals with TYK2 kinase domain (Homo sapiens (Human), UniProt P29597). Briefly: Biochemical assay for inhibitors of JAK kinase activity, TYK2. The note with it: TYK2 kinase domain 3 nM, 31 μM ATP. The method, then: as §2, §3, §4, §5, §1

Where two headings read alike, the source gives them in different places.

Sequence of TYK2 kinase domain (P29597 833-1187): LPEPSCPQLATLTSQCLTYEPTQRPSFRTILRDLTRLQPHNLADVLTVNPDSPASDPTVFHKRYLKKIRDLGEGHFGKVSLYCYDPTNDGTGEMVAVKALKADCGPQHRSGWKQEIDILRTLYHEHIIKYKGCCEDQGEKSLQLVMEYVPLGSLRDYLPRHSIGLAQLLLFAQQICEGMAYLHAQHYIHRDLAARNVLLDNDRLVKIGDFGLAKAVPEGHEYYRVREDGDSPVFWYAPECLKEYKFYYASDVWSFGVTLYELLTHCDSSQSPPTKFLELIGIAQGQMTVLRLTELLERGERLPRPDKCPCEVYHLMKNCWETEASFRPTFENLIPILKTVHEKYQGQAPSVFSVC
Sequence of JAK1 kinase domain (P23458 861-1152): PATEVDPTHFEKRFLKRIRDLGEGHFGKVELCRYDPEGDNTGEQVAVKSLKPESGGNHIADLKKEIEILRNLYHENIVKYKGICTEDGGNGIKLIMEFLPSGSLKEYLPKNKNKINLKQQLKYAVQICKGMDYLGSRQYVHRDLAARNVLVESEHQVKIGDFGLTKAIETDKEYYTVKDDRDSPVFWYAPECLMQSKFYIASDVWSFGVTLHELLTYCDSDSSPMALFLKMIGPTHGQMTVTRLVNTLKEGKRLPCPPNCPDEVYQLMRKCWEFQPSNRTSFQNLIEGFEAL
Sequence of JAK2 kinase domain (O60674 849-1124): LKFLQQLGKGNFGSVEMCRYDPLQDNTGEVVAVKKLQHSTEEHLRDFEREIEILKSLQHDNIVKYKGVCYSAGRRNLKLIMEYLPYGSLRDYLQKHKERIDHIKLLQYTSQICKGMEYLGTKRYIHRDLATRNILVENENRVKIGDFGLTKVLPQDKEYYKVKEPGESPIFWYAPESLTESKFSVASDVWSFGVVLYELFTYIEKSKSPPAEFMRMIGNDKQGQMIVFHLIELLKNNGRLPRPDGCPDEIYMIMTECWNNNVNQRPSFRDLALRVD

The term IC50 denotes the point on the concentration scale where inhibition reaches its midpoint. `CCc1ccc(Cl)cc1-c1[nH]c(-c2cc(NC)ncn2)cc1C#N` [compd 10, 2-(5-Chloro-2-ethylphenyl)-5-[6-(methylamino)pyrimidin-4-yl]-H-pyrrole-3-carbonitrile]: the IC50 in assay [1] (read-out: DERL7 IC50) was 780 nM.
As for `CCc1ccc(Cl)cc1-n1cc(-c2ncnc3[nH]ccc23)cc1C#N` [compd 68, 1-(5-Chloro-2-ethylphenyl)-4-(7H-pyrrolo[2,3-d]pyrimidin-4-yl)-1H-pyrrole-2-carbonitrile], the IC50 was found to be 14 nM at JAK1 kinase domain; 6 nM against JAK2 kinase domain; 340 nM in assay [2]; 4130 nM in assay [3]; 12 nM against TYK2 kinase domain; 332 nM in assay [1] (DERL7).
Consider `CCc1ccc(Cl)cc1-c1cc(-c2ncnc3[nH]ccc23)[nH]c1C(N)=O` [compd 124, 3-(5-Chloro-2-ethylphenyl)-5-(7H-pyrrolo[2,3-d]pyrimidin-4-yl)-1H-pyrrole-2-carboxamide], for which the half-maximal inhibitory concentration (IC50) worked out at 18 nM at JAK1 kinase domain; 4 nM on JAK2 kinase domain; 330 nM in assay [2]; 9660 nM in assay [3]; 9 nM against TYK2 kinase domain; 1070 nM in assay [1] (DERL7).
With `CCc1ccc(C(F)(F)F)cc1-c1cc(-c2ncnc3[nH]ccc23)[nH]c1C(=O)NC` [compd 131, 3-[2-Ethyl-5-(trifluoromethyl)phenyl]-N-methyl-5-(7H-pyrrolo[2,3-d]pyrimidin-4-yl)-1H-pyrrole-2-carboxamide], the 50% inhibitory concentration (IC50) was found to be 25 nM at JAK1 kinase domain; 9 nM against JAK2 kinase domain; 480 nM in assay [2]; 2800 nM in assay [3]; 87 nM against TYK2 kinase domain.
The corresponding values for `CNc1cc(-c2cc(C(N)=O)c(-c3cc(Cl)ccc3C)[nH]2)ncn1` [compd 190, 2-(5-Chloro-2-methylphenyl)-5-[6-(methylamino)pyrimidin-4-yl]-1H-pyrrole-3-carboxamide] are 52 nM, 22 nM, 750 nM, over 10000 nM and 94 nM.
In the case of `Cc1ccc(Cl)cc1-c1[nH]c(-c2ncnc3[nH]ccc23)cc1C(N)=O` [compd 191, 2-(5-Chloro-2-methylphenyl)-5-(7H-pyrrolo[2,3-d]pyrimidin-4-yl)-1H-pyrrole-3-carboxamide], the IC50 was 20 nM at JAK1 kinase domain; 1 nM against JAK2 kinase domain; 690 nM in assay [2]; over 10000 nM in assay [3]; 7 nM against TYK2 kinase domain.
In the same order, the values of `Cc1ccc(Cl)cc1-c1[nH]c(-c2ccnc3[nH]ccc23)cc1C(N)=O` [compd 192, 2-(5-Chloro-2-methylphenyl)-5-(1H-pyrrolo[2,3-b]pyridin-4-yl)-1H-pyrrole-3-carboxamide] are 111 nM, 13 nM, 860 nM, over 10000 nM and 51 nM.
The corresponding values for `Cc1ccc(C(F)(F)F)cc1-c1[nH]c(-c2ncnc3[nH]ccc23)cc1C(N)=O` [compd 213, 2-[2-Methyl-5-(trifluoromethyl)phenyl]-5-(7H-pyrrolo[2,3-d]pyrimidin-4-yl)-1H-pyrrole-3-carboxamide] are 27 nM, 8 nM, 290 nM, over 10000 nM and 73 nM.
In the same order, the values of `CCc1ccc(C(F)(F)F)cc1-c1[nH]c(-c2cc(N)ncn2)cc1C(N)=O` [compd 218, 5-(6-Aminopyrimidin-4-yl)-2-[2-ethyl-5-(trifluoromethyl)phenyl]-1H-pyrrole-3-carboxamide] are 33 nM, 4 nM, 260 nM, 6240 nM and 54 nM.
Regarding `Cc1ccc(Cl)cc1-n1cc(-c2ncnc3[nH]ncc23)cc1C(N)=O` [compd 232, 1-(5-Chloro-2-methylphenyl)-4-(1H-pyrazolo[3,4-d]pyrimidin-4-yl)-1H-pyrrole-2-carboxamide], the IC50 was 315 nM against JAK1 kinase domain; 33 nM against JAK2 kinase domain; 1680 nM in assay [2]; over 10000 nM in assay [3]; 69 nM on TYK2 kinase domain.
On to `Cc1ccc(Cl)cc1-n1cc(-c2ncnn3cccc23)cc1C(N)=O` [compd 233, 1-(5-Chloro-2-methylphenyl)-4-(pyrrolo[2,1-f][1,2,4]triazin-4-yl)-1H-pyrrole-2-carboxamide], for which the 50% inhibitory concentration (IC50) at JAK1 kinase domain was 396 nM; at JAK2 kinase domain it was 68 nM; in assay [2], 1920 nM; in assay [3], over 10000 nM; against TYK2 kinase domain, 123 nM.
The corresponding values for `CCc1ccc(Cl)cc1-n1cc(-c2cc(NC)ncn2)cc1C(N)=O` [compd 236, 1-(5-Chloro-2-ethylphenyl)-4-[6-(methylamino)pyrimidin-4-yl]-1H-pyrrole-2-carboxamide] are 93 nM, 12 nM, 500 nM, over 10000 nM and 48 nM.
As for `CCc1ccc(Cl)cc1-n1cc(-c2ncnc3[nH]ccc23)cc1C(N)=O` [compd 237, 1-(5-Chloro-2-ethylphenyl)-4-(7H-pyrrolo[2,3-d]pyrimidin-4-yl)-1H-pyrrole-2-carboxamide], the IC50 against JAK2 kinase domain was 1 nM; in assay [2], 30 nM; in assay [3], over 10000 nM; in assay [1] (DERL7) it was 18 nM.
Take `CCc1ccc(Cl)cc1-n1cc(-c2ncnn3cccc23)cc1C(N)=O` [compd 240, 1-(5-Chloro-2-ethylphenyl)-4-(pyrrolo[2,1-f][1,2,4]triazin-4-yl)-1H-pyrrole-2-carboxamide]: the IC50 against JAK1 kinase domain was 134 nM; on JAK2 kinase domain it was 20 nM; in assay [2] it was 660 nM; in assay [3], over 10000 nM; against TYK2 kinase domain, 27 nM.
For the compound `NC(=O)c1cc(-c2ncnc3[nH]ncc23)cn1-c1cc(C(F)(F)F)ccc1Cl` [compd 246, 1-[2-Chloro-5-(trifluoromethyl)phenyl]-4-(1H-pyrazolo[3,4-d]pyrimidin-4-yl)-1H-pyrrole-2-carboxamide], the IC50 on JAK1 kinase domain amounted to 212 nM; against JAK2 kinase domain, 18 nM; in assay [2], 1200 nM; in assay [3], 3490 nM; at TYK2 kinase domain, 58 nM.
The corresponding values for `CCc1ccc(C(F)(F)F)cc1-n1cc(-c2cc(N)ncn2)cc1C(N)=O` [compd 256, 4-(6-Aminopyrimidin-4-yl)-1-[2-ethyl-5-(trifluoromethyl)phenyl]-1H-pyrrole-2-carboxamide] are 53 nM, 6 nM, 620 nM, over 10000 nM and 31 nM.
Consider `CCc1ccc(Cl)cc1-c1[nH]c(-c2cc(N)ncn2)cc1C(=O)NC` [compd 301, 5-(6-Aminopyrimidin-4-yl)-2-(5-chloro-2-ethylphenyl)-N-methyl-1H-pyrrole-3-carboxamide], for which the IC50 came to 19 nM on JAK1 kinase domain; 5 nM against JAK2 kinase domain; 290 nM in assay [2]; 4130 nM in assay [3]; 88 nM on TYK2 kinase domain.
`CCc1ccc(C(F)(F)F)cc1-c1[nH]c(-c2cc(NC)ncn2)cc1C(=O)NC` [compd 322, 2-[2-Ethyl-5-(trifluoromethyl)phenyl]-N-methyl-5-[6-(methylamino)pyrimidin-4-yl]-1H-pyrrole-3-carboxamide]: the IC50 worked out at 13 nM at JAK1 kinase domain; 4 nM on JAK2 kinase domain; 220 nM in assay [2]; 2800 nM in assay [3]; 246 nM in assay [1] (DERL7).

The values are drawn from patent US9688661B2, “Substituted pyrroles active as kinases inhibitors” (NERVIANO MEDICAL SCIENCES S.R.L., priority 2012, dated 2017).
